This passage reports CPE inhibition results from PubChem BioAssay AID1250 (SRMLSC, 2008).

Calls of active or inactive are those of the source.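 Rule for the calls: active = inhibition of at least 30% at one or more tested concentrations; inactive = inhibition below 30% at every dose.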

A short description of the test: antiviral protection against BTV-induced cell death – arbovirus, BSR cells, confirmation (AID 1250). Conditions: BSR cells, Bluetongue virus CPE, ATP luminescence, 72 h; at 20 µM (top of the series).
`CCc1nn2cc(C(=O)c3ccccc3O)cnc2c1-c1ccc(F)cc1`: the CPE inhibition was 14.2% (inactive).

With `COc1ccc2nc(N3C(=O)CC(Cc4cc(C)cc(C)c4)C3=O)sc2c1` (stereo not given), the CPE inhibition was 13.6% (inactive).

For the compound `COc1ccc(/C=C/c2nc(-c3ccccc3O)n[nH]2)cc1OC`, the CPE inhibition is 14% (inactive).

For `O=c1/c(=C/c2ccc(O)cc2)sc2n1CCCN=2`, the CPE inhibition is 1.41% (inactive).

Regarding `O=C(O)c1ccc(-c2nc(-c3ccc(Cl)cc3)cs2)cc1`, the CPE inhibition was 16.2% (inactive).

For the compound `N#CCCN(Cc1cccnc1)C(=S)Nc1ccc(OC(F)F)cc1`, the CPE inhibition was 3.08% (inactive).

For `CCc1ccc(N2CCN(C(=O)c3ccc(OC)c(OC)c3)CC2)cc1`, the CPE inhibition was 7.4% (inactive).

With `COC1=C/C(=C/c2c(N)n3nc(-c4ccc(C)cc4)sc3nc2=O)C=CC1=O`, the CPE inhibition was 29.9% (inactive).

On to `COc1ccc(-c2nnc(-c3ccc(Br)o3)o2)cc1OC`, for which the CPE inhibition was 14.5% (inactive).

For the compound `COc1ccc(C(=O)NN/C(C)=C/C(=O)C(F)(F)C(F)(F)C(F)(F)F)cc1`, the CPE inhibition was -14.6% (inactive).

Turning to `Cc1ccc(CSCc2nc3ccccc3[nH]2)cc1`, the CPE inhibition was 12.9% (inactive).

With `CN(C(=O)c1coc(=O)c2ccccc12)c1ccc(Br)cc1`, the CPE inhibition was 18.4% (inactive).

With `CCCN(CCC)C(=O)CSc1nc2c(sc(=S)n2-c2ccc(OCC)cc2)c(=O)[nH]1`, the CPE inhibition was 28.7% (inactive).

Take `COc1ccc(-c2noc(CSc3nc(-c4ccccc4)cc(=O)[nH]3)n2)cc1OC`: the CPE inhibition was 26.6% (inactive).

`C=CCOc1ccc(Br)cc1/C=C1/SC(=Nc2ccc(C(=O)O)cc2)NC1=O`: the CPE inhibition is 10.2% (inactive).

With `Cc1cc(C)c(NC(=O)c2oc3ccccc3c2COc2ccccc2)c(C)c1`, the CPE inhibition is 5.41% (inactive).

In the case of `COc1ccccc1-n1c(C)cc(/C=C2/C(=N)N3C(=NC2=O)SN=C3S(C)(=O)=O)c1C`, the CPE inhibition is 18.1% (inactive).

With `CCOC(=O)c1ccc(NC(=O)CC2S/C(=N/N=C/c3c[nH]c4ccccc34)NC2=O)cc1` (stereo not given), the CPE inhibition was 11.7% (inactive).

Turning to `CN(C)Cc1c(O)c(Cl)cc2c3c(c(=O)oc12)CCCC3`, the CPE inhibition is -0.25% (inactive).

Consider `CCOC(=O)c1c(-c2ccccc2)csc1NC(=S)N(CC)CC`, for which the CPE inhibition is 10.8% (inactive).

As for `N#CCSc1nc(N)c(C#N)c(C2CCCCC2)c1C#N`, the CPE inhibition was 6.59% (inactive).

Take `CCCCN(CC)C(=O)CSc1nc2c(sc(=S)n2-c2ccc(OCC)cc2)c(=O)[nH]1`: the CPE inhibition was 18.4% (inactive).

As to `COc1cc(/C=C/C(=O)Nc2nnc(C(C)(C)C)s2)cc(OC)c1OC`, the CPE inhibition is 11.5% (inactive).

Turning to `O=C(CCl)N=c1sccn1Cc1cccc2ccccc12`, the CPE inhibition is 7.67% (inactive).

`Cc1cccc(-n2c3nc(=O)[nH]c(=O)c-3cc3cc([N+](=O)[O-])ccc32)c1`: the CPE inhibition was 16.1% (inactive).

As for `Oc1ccc(-c2n[nH]c(=S)n2-c2ccc3c(c2)OCCO3)c(O)c1`, the CPE inhibition was 18.1% (inactive).

In the case of `CCOC(=O)c1c(-c2ccc(C)cc2)csc1NC(=O)C1CC=CCC1C(=O)O` (stereo not given), the CPE inhibition was 18.1% (inactive).

Take `CCOC(=O)c1ccc(NC(=O)Cn2nnc(-c3ccccc3)n2)cc1`: the CPE inhibition was 12.9% (inactive).

In the case of `c1coc(CNc2c3c(nc4ncnn24)CCCC3)c1`, the CPE inhibition was 13.4% (inactive).

Consider `COCCCNCC1C(Oc2ccc(Cl)cc2)C(=O)N1c1ccccc1C` (stereo not given), for which the CPE inhibition is 14.4% (inactive).

As for `CC(C)(O[C@@H]1O[C@H](CO)[C@@H](O)[C@H](O)[C@H]1O)[C@H]1Cc2cc3ccc(=O)oc3cc2O1`, the CPE inhibition is 0.22% (inactive).

For the compound `COC(=O)c1ccc(NC(=O)c2ccccc2NS(C)(=O)=O)cc1`, the CPE inhibition is 22.4% (inactive).

On to `COCCn1c(SC(C)C(=O)Nc2ncc(Cl)cc2Cl)nc2ccccc21` (stereo not given), for which the CPE inhibition was 21% (inactive).

Regarding `OC(c1ccccc1)C1CN(Cc2ccccc2)CCC1(O)c1ccccc1` (stereo not given), the CPE inhibition is 20.9% (inactive).

Consider `COc1ccc(NS(=O)(=O)c2cc(NC(=O)/C=C/c3cccs3)ccc2N2CCOCC2)cc1`, for which the CPE inhibition was 18.4% (inactive).

`Nc1c(-c2ccccc2)c(CSc2nc3ccccc3[nH]2)nn1-c1cccc(Cl)c1`: the CPE inhibition was 23.8% (inactive).

As to `CCN=c1scc(C)n1/N=C/c1cc(Br)c(O)c(Br)c1`, the CPE inhibition is -2.38% (inactive).

In the case of `COCCn1c(SCc2nc3scc(-c4ccc(Cl)cc4)c3c(=O)[nH]2)nnc1-c1cccc(C)c1`, the CPE inhibition is 17.4% (inactive).

On to `N#Cc1c(N2C(=O)Nc3ccccc3N2O)sc2c1CCCCCC2`, for which the CPE inhibition is 19.9% (inactive).

Regarding `O=C(CSc1nnc(NC(=O)c2c(F)cccc2F)s1)Nc1ccc(F)cc1`, the CPE inhibition is 3.41% (inactive).

On to `O=C(Nc1scc(-c2ccc(F)cc2)c1C(=O)O)c1ccco1`, for which the CPE inhibition is 10% (inactive).

As for `CCCCn1c(SCc2cccc([N+](=O)[O-])c2)nc2ccsc2c1=O`, the CPE inhibition is 3.1% (inactive).

As for `Clc1cccc(-c2cc3nc4c(c(NCc5ccco5)n3n2)CCCC4)c1`, the CPE inhibition is 10.7% (inactive).

For the compound `Fc1ccc(Br)cc1C1C=C(c2ccc(Br)cc2)Nc2ncnn21` (stereo not given), the CPE inhibition is 2.77% (inactive).

Consider `C=CCOc1c(Br)cc(/C=N/Nc2ccc(C(=O)O)cc2)cc1OCC`, for which the CPE inhibition is 14.1% (inactive).

In the case of `COc1cc2c(C(=O)O)c(C)n(CC(C)C)c2c2ccccc12`, the CPE inhibition is 28.1% (inactive).

Take `N#Cc1c(-c2ccco2)nc(SCC(=O)Nc2ccc(S(N)(=O)=O)cc2)[nH]c1=O`: the CPE inhibition is 4.9% (inactive).

As for `CSc1nc(C)c(CCO)c(=O)[nH]1`, the CPE inhibition was 3.71% (inactive).

Consider `Cc1cccc(OCC(=O)Nc2cccc(C(=O)Nc3ccccc3C(=O)O)c2)c1`, for which the CPE inhibition is 27.3% (inactive).

With `Cc1cccc2c1nc(-c1ccccc1)n1nnnc21`, the CPE inhibition was -3.74% (inactive).

In the case of `CC(C)c1ccc(C2=C(O)c3ccccc3C(=O)C2=O)cc1`, the CPE inhibition was 14.3% (inactive).

As for `COc1cc2ccccc2cc1C(=O)NC(=S)Nc1cc(C(=O)O)ccc1C`, the CPE inhibition is 17.8% (inactive).

In the case of `Cc1ccc(N2CN=c3s/c(=C\c4ccccn4)c(=O)n3C2)cc1`, the CPE inhibition is -1.84% (inactive).

Regarding `CCCCCNc1nc2ccccc2nc1NS(=O)(=O)c1cccs1`, the CPE inhibition was 20.4% (inactive).

Regarding `COC(=O)c1c(-c2ccccc2)csc1N1C(=O)Nc2ccccc2N1O`, the CPE inhibition is 10.9% (inactive).

For the compound `CSc1nsc2nc(=O)c(/C=C3\C=Nc4ccccc43)c(N)n12`, the CPE inhibition was 20.5% (inactive).

Turning to `CSC1=NSC2=NC(=O)/C(=C\c3cccs3)C(=N)N12`, the CPE inhibition was 16% (inactive).

As for `N#C/C(=C\c1cn[nH]c1-c1ccc(Cl)cc1)C(=O)NCc1ccccc1`, the CPE inhibition was 12.6% (inactive).

As for `Cc1ccc(NC(=O)c2cncc(Br)c2)c(O)c1`, the CPE inhibition is 13.8% (inactive).

For `Cc1ccccc1N=C1SCC(=O)N1Cc1ccccc1`, the CPE inhibition was 3.79% (inactive).

In the case of `O=C(Nc1nc(-c2ccc3c(c2)OCO3)cs1)C1COc2ccccc2O1` (stereo not given), the CPE inhibition was 22.7% (inactive).

For `O=[N+]([O-])c1cccc(/C=N\N=C2c3ccccc3-c3ccccc32)c1O`, the CPE inhibition was 22.2% (inactive).

On to `O=C(Nc1scc(-c2ccccc2)c1C(=O)O)c1ccco1`, for which the CPE inhibition is 10.9% (inactive).

Turning to `O=C(O)CSc1nc(-c2ccc(Cl)cc2)nc2c1oc1ccccc12`, the CPE inhibition is 24.1% (inactive).

For `COc1ccc(-c2csc(Nc3ncccc3C)n2)cc1OC`, the CPE inhibition is 14.9% (inactive).

As for `COCCSc1nnc(NC(=O)C2CCCCC2)s1`, the CPE inhibition was 6.07% (inactive).

Turning to `CCOC(=O)CC1=NS(=O)(=O)c2ccccc2N1`, the CPE inhibition is 2.01% (inactive).

`O=C1CC(c2cccc([N+](=O)[O-])c2)c2ccc3ccccc3c2N1` (stereo not given): the CPE inhibition was 8.81% (inactive).

Turning to `Cc1ccccc1OCCSCc1nc2ccccc2[nH]1`, the CPE inhibition was 24.9% (inactive).

Consider `O=C(O)c1cc(-c2ccc(/C=N/Nc3ccc([N+](=O)[O-])cn3)o2)ccc1Cl`, for which the CPE inhibition was 21.4% (inactive).

In the case of `COc1ccc(/C=C2/C(=O)N(CC3CCCO3)C(=S)N2C)c(OC)c1` (stereo not given), the CPE inhibition is 1.63% (inactive).

As for `Cc1nc(CNS(=O)(=O)c2cccnc2)cs1`, the CPE inhibition is 4.68% (inactive).

On to `CC(C)c1cc(C(F)(F)F)n2nc(C(=O)Nc3ccc4c(c3)OCO4)cc2n1`, for which the CPE inhibition is 9.64% (inactive).

In the case of `O=C(CSc1nc2nn(-c3ccccc3)c(=O)c-2c2n1CCCCC2)NCCc1ccccc1`, the CPE inhibition is 10.8% (inactive).

`N#C/C(=C\c1cc2ccccc2nc1N1CCCCC1)C(N)=O`: the CPE inhibition is 22.5% (inactive).

For the compound `CCc1nnc(NS(=O)(=O)c2ccc(NC(=O)COc3ccc4ccccc4c3)cc2)s1`, the CPE inhibition was 25.7% (inactive).

As for `O=C(CN1CCCCCC1)N/N=C/c1cccs1`, the CPE inhibition was -0.49% (inactive).

As for `N#Cc1c(-c2ccccc2)nc(SCC(=O)N(c2ccccc2)c2ccccc2)[nH]c1=O`, the CPE inhibition is 12.2% (inactive).

For `O=C(Nc1nnc(SCc2ccc(F)cc2)s1)c1ccc2c(c1)C(=O)N(c1ccccc1Cl)C2=O`, the CPE inhibition was 20.2% (inactive).

As for `CCOCCCNC(=S)NCCNc1nc2c(C)cccc2cc1C#N`, the CPE inhibition was 7.38% (inactive).

With `O=c1oc(-c2ccccc2)nc2sc3c(c12)CCCC3`, the CPE inhibition is 24.9% (inactive).

Consider `CSc1ccccc1NC(=O)CO/N=C(\C)c1cc2ccccc2o1`, for which the CPE inhibition is 12.9% (inactive).

`COc1ccc(CCCc2nnc(SCc3nc4ccccc4c(=O)[nH]3)n2C)cc1`: the CPE inhibition was 3.86% (inactive).

Consider `COc1cc(-c2nnc(-c3ccc(N4CCOCC4)cc3)o2)cc(OC)c1OC`, for which the CPE inhibition was 8.33% (inactive).

In the case of `CC(C)Oc1cccc(C(=O)NC(=S)Nc2ccccc2)c1`, the CPE inhibition is 6.77% (inactive).
